These results are taken from PubChem BioAssay (NCI).

Assay in all cases: inhibition of tumour cell growth, NCI panel, 48 h
Assay [1] concerns MDA-N.
In assay [2] the test system is RPMI-8226 leukemia.
In assay [3] the test system is 786-0 renal.
The subject of assay [4] is HT29 colon.
The test system of assay [5] is NCI-H522 lung.
Assay [6] has as its system UACC-62 melanoma.
The subject of assay [7] is NCI/ADR-RES ovarian.
Assay [8] has as its system UACC-257 melanoma.
Assay [9] relates to CCRF-CEM leukemia.
In assay [10] the test system is UO-31 renal.
Assay [11] concerns SK-MEL-5 melanoma.
Assay [12] relates to NCI-H23 lung.
Assay [13] relates to HCT-116 colon.
For assay [14], the system named is IGROV1 ovarian.
Assay [15] deals with HOP-92 NSCLC.
Assay [16] has as its system MDA-MB-231 breast.
In assay [17] the test system is CAKI-1 renal.
In assay [18] the test system is SF-268 CNS.
The test system of assay [19] is HCC-2998 colon.
Assay [20] deals with SNB-19 CNS.

Structures are written as SMILES.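 Compound exposure: 48 hours, 5 concentrations, 96-well plates. TGI is the concentration that stops growth completely.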

As to `Cn1ccnc1SC(F)(F)c1nc2ccccc2o1`, the TGI in [1], in assay [2], in assay [3], in assay [4], in [5] and in assay [6] was > 100 µM in each case. For the same molecule, the TGI in assay [7], in [8], in assay [9], in assay [10], in assay [11] and in assay [12] was > 100 µM each time. In addition, the TGI in assay [13], in assay [14], in assay [15], in assay [16], in assay [17] and in [18] was > 100 µM in each case. For the same molecule, the TGI in assay [19] was > 100 µM.
Consider `COC(OC)C1(c2ccccc2)Oc2ccccc2C1=O` (stereo not given), for which the TGI in [1], in [2], in assay [3], in assay [4], in assay [5] and in [6] was > 100 µM throughout. Besides, the TGI in assay [7], in assay [8], in assay [9], in assay [20], in assay [11] and in assay [12] was > 100 µM throughout. Further, the TGI in assay [13], in assay [14], in assay [15], in assay [16], in [17] and in [18] was > 100 µM in each case. The TGI in assay [19] was > 100 µM.
In the case of `NS(=O)(=O)c1cc(S(N)(=O)=O)c(NC(=O)Nc2ccc(Cl)c(Cl)c2)c(Cl)c1Cl`, the TGI in assay [1], in assay [2], in [3], in [4], in assay [5] and in assay [6] was > 100 µM in each case. Besides, the TGI in assay [7], in assay [8], in assay [20], in [10], in assay [11] and in [12] was > 100 µM throughout. The TGI in assay [13], in [14], in [15], in assay [16], in [17] and in assay [18] was > 100 µM in each case. For the same molecule, the TGI in assay [19] was > 100 µM.
For the molecule `CN(C)S(=O)(=O)n1ccnc1`, the TGI in assay [1], in assay [2], in assay [3], in [5], in assay [7] and in assay [8] was > 100 µM in each case. For the same molecule, the TGI in assay [20], in [10], in assay [11], in assay [12], in assay [13] and in assay [14] was > 100 µM each time. Moreover, the TGI in assay [15], in assay [16], in assay [17], in assay [18] and in [19] was > 100 µM each time.
`CCOC(=O)c1c(N2CCOCC2)[nH]c(=O)c(C(c2c(O)c(C(=O)OCC)c(N3CCOCC3)[nH]c2=O)C(C)C)c1O`: the TGI in assay [1], in [2], in assay [3], in assay [4], in [5] and in assay [6] was > 100 µM each time. For the same molecule, the TGI in [7], in [8], in assay [9], in assay [20], in [10] and in assay [11] was > 100 µM throughout. Moreover, the TGI in assay [12], in assay [13], in assay [15], in [16], in assay [17] and in assay [18] was > 100 µM in each case. In addition, the TGI in assay [19] was > 100 µM.
Consider `C/C(Sc1ccccc1)=C1/CCCN(Cc2ccccc2)C1`, for which the TGI is > 100 µM in [1]; 43.3 µM in assay [2]; 50.3 µM in assay [3]; > 100 µM in assay [4]; 38.8 µM in assay [5]; 47.6 µM in assay [6]. Further, the TGI was 74.1 µM in [7]; 44.6 µM in assay [8]; 46.4 µM in [9]; > 100 µM in [20]; 40.9 µM in [10]; 28.6 µM in [11]. For the same molecule, the TGI in assay [12] is 79.5 µM; in assay [14], > 100 µM; in assay [15] it was 51.9 µM; in assay [16], 76.5 µM; in [17] it was > 100 µM; in [18], > 100 µM. The same molecule yielded a TGI in assay [19] of 53.3 µM.
For `Nc1sccc1S(=O)(=O)c1ccsc1N`, the TGI in assay [1], in [2], in [3], in [4], in [5] and in assay [6] was > 100 µM throughout. Moreover, the TGI in assay [7], in [8], in assay [20], in assay [10], in assay [11] and in assay [12] was > 100 µM throughout. Also, the TGI in assay [13], in [14], in assay [15], in assay [16], in [17] and in assay [18] was > 100 µM throughout. Also, the TGI in assay [19] is > 100 µM.
As to `CCN(CC)CCC(=O)c1ccc(Oc2ccc(C)cc2)cc1`, the TGI in [1] amounted to 31.5 µM; in assay [2], 65.9 µM; in assay [3], 30.1 µM; in assay [4], 35.6 µM; in [6], 31.3 µM; in assay [7], 51.2 µM. Moreover, the TGI in [8] worked out at 34.4 µM; in [9] it was 89.7 µM; in assay [20], 33.3 µM; in assay [12], 34.8 µM; in [13], 31.2 µM; in [14] it was 35.7 µM. For the same molecule, the TGI is 39.3 µM in assay [15]; 31 µM in [16]; 31.1 µM in assay [17]; 33.8 µM in assay [18]; 36.2 µM in assay [19].
Regarding `C#CCn1c(=O)c(C)cn(/C(=C/C(=O)OCC)C(=O)OCC)c1=O`, the TGI is 43.8 µM in assay [1]; > 27.7 µM in assay [2]; 19.4 µM in assay [3]; 4.88 µM in [4]; 24.8 µM in assay [6]; 10.6 µM in assay [7]. Further, the TGI in assay [8] stood at 28.8 µM; in assay [9], 13.5 µM; in assay [20], 28.6 µM; in assay [10] it was 23.4 µM; in [11] it was 32.9 µM; in assay [12] it was 23.4 µM. Further, the TGI in assay [13] stood at 13.7 µM; in [14] it was 13 µM; in [15] it was 8.5 µM; in assay [16], 36.3 µM; in assay [17], 3.18 µM; in assay [18], 25.6 µM. For the same molecule, the TGI in assay [19] came out at 32.2 µM.
As for `Cc1cc(C)c2c(=O)n(CN3CCN(c4ccccc4)CC3)sc2n1`, the TGI was 60.4 µM in assay [1]; 31.4 µM in assay [3]; 34.6 µM in assay [4]; 32.5 µM in assay [5]; > 100 µM in assay [6]; 52.7 µM in assay [7]. The TGI in [8] was > 100 µM; in assay [9], > 100 µM; in assay [20], > 100 µM; in assay [10], 40.7 µM; in assay [11], > 100 µM; in assay [12] it was 85.2 µM. Further, the TGI in assay [13] was 35.1 µM; in assay [14], > 100 µM; in assay [15] it was > 100 µM; in [16], 39.5 µM; in assay [17], 39.4 µM; in assay [18], > 100 µM. The TGI in assay [19] is > 100 µM.
Regarding `C=CC1(c2ccc(Cl)c(Cl)c2)OCCO1`, the TGI in assay [1], in [2], in assay [3], in assay [4], in assay [5] and in [6] was > 100 µM each time. Further, the TGI in [7], in assay [8], in assay [9], in assay [20], in [10] and in [11] was > 100 µM each time. In addition, the TGI in assay [12] was > 100 µM; in assay [13] it was > 100 µM; in assay [14], > 100 µM; in assay [15] it was > 100 µM; in [16], 3.48 µM; in [18], > 100 µM. For the same molecule, the TGI in [19] was > 100 µM.
`CC(C)N(CCCNc1c2ccccc2nc2cccc([N+](=O)[O-])c12)C(C)C`: the TGI was < 0.01 µM in assay [1]; < 0.0192 µM in assay [2]; 0.155 µM in assay [3]; 0.0935 µM in assay [4]; 3.68 µM in [7]; < 0.0508 µM in assay [8]. Besides, the TGI is 0.0806 µM in assay [9]; 0.121 µM in assay [20]; < 0.0156 µM in assay [11]; < 0.0183 µM in assay [12]; 0.391 µM in assay [13]; < 0.01 µM in assay [15]. Also, the TGI in [16] was < 0.01 µM; in [17], 0.593 µM; in [19] it was < 0.01 µM.
